{"source": "patent US9457081B2", "about": "“Combination therapy using c-Met inhibitor and beta-catenin inhibitor” (Samsung Electronics Co., Ltd., priority 2013, dated 2016)", "type_in_all_cases": "cell-based", "key": {"HT-29 cells": {"system": "HT-29 cells", "assay": "HT-29 cell proliferation / viability (CellTiter Glo luminescence)", "conditions": "crizotinib administered alone, 0-20 nM, 72 hours", "experimental": "To confirm the effect of co-administration in a colon cancer cell on which an anti-c-Met antibody has no effect when administered alone, HT-29 (ATCC, HTB-38) cells were used for assaying the effect of co-administration on cell proliferation.\nIn particular, 5000 cells of HT-29 cell were incubated in 96-well plate (medium: 10% FBS in RPMI 1640 (GIBCO), incubation temperature: 37° C.). 24 hours after, the incubated cells were treated with L3-1Y/IgG2 prepared in reference example or anti-c-Met antibody 1 (heavy chain: SEQ ID NO: 109; light chain: SEQ ID NO: 110) and beta-catenin inhibitor XAV-939 (Selleck chemical). In particular, 72 hours after the antibody treatment, 100 uL of CellTiter Glo solution (Promega, G7572) was added to each well and left at room temperature for 30 minutes. The number of the cells was counted through luminescence signal, and the luminescence signal was recorded using Envision 2104 Multi-label Reader (Perkin Elmer). In the experiment, L3-1Y/IgG2 was used at the amount of 0, 0.016, 0.08, 0.4, and 2 μg/ml, and XAV-939 was used at the fixed amount of 5 uM. […]\nIn particular, 5000 cells of HT-29 cell were incubated in 96-well plate (medium: 10% FBS in RPMI 1640 (GIBCO), incubation temperature: 37° C.). […] The number of the cells was counted through luminescence signal, and the luminescence signal was recorded using Envision 2104 Multi-label Reader (Perkin Elmer). […]"}, "Lovo cells": {"system": "Lovo cells", "assay": "Lovo cell proliferation (CellTiter Glo luminescence)", "conditions": "Lovo (FIG. 5); crizotinib administered alone; 72 hours", "experimental": "To confirm the effect of co-administration in a colon cancer cell on which a c-Met inhibitor has no effect when administered alone, Lovo (ATCC, CCL-229) cells were used for assaying the effect of co-administration on cell proliferation.\nIn particular, 5000 cells of Lovo cell were incubated in 96-well plate (medium: 10% FBS in RPMI 1640 (GIBCO), incubation temperature: 37° C.). 24 hours after, the incubated cells were treated with a small molecular compound inhibiting c-Met, crizotinib (Selleck chemical) and beta-catenin inhibitor XAV-939 (Selleck chemical). In particular, 72 hours after the antibody treatment, 100 uL of CellTiter Glo solution (Promega, G7572) was added to each well and left at room temperature for 30 minutes. The number of the cells was counted through luminescence signal, and the luminescence signal was recorded using Envision 2104 Multi-label Reader (Perkin Elmer). In the experiment, L3-1Y/IgG2 was used at the amount of 0, 0.016, 0.08, 0.4, and 2 μg/ml, and XAV-939 was used at the fixed amount of 5 uM."}, "HCC1954 cells": {"system": "HCC1954 cells", "assay": "HCC1954 cell proliferation with beta-catenin siRNA reverse transfection", "conditions": "c-Met inhibitor treated alone (L3-1Y/IgG2 0-2 μg/ml; crizotinib 0-20 nM), 72 hours", "description": "(§1) To confirm the effect of co-administration of c-Met inhibitor (anti-c-Met antibody L3-1Y/IgG2 or crizotinib) and beta-catenin siRNA in a cancer cell on which a c-Met inhibitor has no effect when administered alone, a breast cancer cell line HCC1954 (ATCC, CRL 2338) and a kidney cancer cell line Caki-1 (ATCC) were used for assaying the effect of the co-administration.\n(§2) In particular, in 96-well plate, beta-catenin siRNA (Dharmacon, SMARTpool) was subjected to reverse transfection into 5000 cells/well of HCC1954 cell or Caki-1 cell and the cells were incubated (medium: 10% FBS in RPMI 1640 (GIBCO), incubation temperature: 37° C.). […] The number of the cells was counted through luminescence signal, and the luminescence signal was recorded using Envision 2104 Multi-label Reader (Perkin Elmer)."}, "Caki-1 cells": {"system": "Caki-1 cells", "assay": "Caki-1 cell proliferation with beta-catenin siRNA reverse transfection", "conditions": "c-Met inhibitor treated alone (L3-1Y/IgG2 0-2 μg/ml; crizotinib 0-20 nM), 72 hours", "description": "as §1, §2"}}, "data": [{"molecule": "C[C@@H](Oc1cc(-c2cnn(C3CCNCC3)c2)cnc1N)c1c(Cl)ccc(F)c1Cl", "note": "[crizotinib, 3-[(1R)-1-(2,6-dichloro-3-fluorophenyl)ethoxy]-5-(1-piperidin-4-ylpyrazol-4-yl)pyridin-2-amine, reference compound]", "values": [{"measurement": "cell proliferation inhibition effect", "setting": "HT-29 cells", "result": "no cell proliferation inhibition effect is observed"}, {"measurement": "cell proliferation inhibition effect", "setting": "Lovo cells", "result": "no cell proliferation inhibition effect is observed"}, {"measurement": "cell proliferation inhibition effect", "setting": "HCC1954 cells", "result": "no cell proliferation inhibition effect is observed"}, {"measurement": "cell proliferation inhibition effect", "setting": "Caki-1 cells", "result": "no cell proliferation inhibition effect is observed"}]}]}
